Data: ChEMBL document CHEMBL6087464, “Design, Synthesis, and Biological Evaluation of 3,4-Dihydroisoquinolin-1(2H)-one Derivatives as Protein Arginine Methyltransferase 5 Inhibitors for the Treatment of Non-Hodgkin's Lymphoma” (J Med Chem, 2025)
pIC50, pKd: −log10 of the molar value. Active and inactive are the calls of the source. The calls are words filed in the database; no cut-off is given here.

Assays:
[1] = Protein binding in dog plasma; assay type: ADME, cell-free, Canis lupus familiaris; conditions: read-out: PPB (converted)
Cytochrome P450 1A2 = Cytochrome P450 1A2 (Homo sapiens, UniProt P05177); experiment: Inhibition of CYP1A2 (unknown origin); assay type: ADME
Z-138 [2] = experiment: Antitumor activity against human Z138 cells xenografted in female SCID.BG nude mouse assessed as tumor growth inhibition at 25 mg/kg, po administered twice a day for 21 days relative to control; assay type: functional; conditions: Z-138, 504 h, time 21 day, read-out: TGI
NCI-H1975 = experiment: Antiproliferative activity against human NCI-H1975 cells measured after 4 to 5 days by CCK-8 assay; assay type: functional, cell-based
[3] = Toxicity in Sprague-Dawley rat assessed as structural changes in caecum at 31.25 to 125 mg/kg, po administered once a day for 14 days by H and E staining based analysis; assay type: organism-based; conditions: in vivo, 336 h, dose 31.25-125 mg/kg, time 14 day
[4] = Toxicity in Sprague-Dawley rat assessed as structural changes in stomach at 31.25 to 125 mg/kg, po administered once a day for 14 days by H and E staining based analysis; assay type: organism-based; conditions: in vivo, 336 h, dose 31.25-125 mg/kg, time 14 day
A-427 = experiment: Antiproliferative activity against human A-427 cells measured after 4 to 5 days by CCK-8 assay; assay type: functional, cell-based
A549 = experiment: Antiproliferative activity against human A549 cells measured after 4 to 5 days by CCK-8 assay; assay type: functional, cell-based
Z-138 [5] = experiment: Antitumor activity against human Z138 cells xenografted in female SCID.BG nude mouse assessed as tumor growth inhibition at 50 mg/kg, po administered twice a day for 21 days relative to control; assay type: functional; conditions: Z-138, 504 h, time 21 day, read-out: TGI
[6] = Toxicity in Sprague-Dawley rat assessed as morphological changes in stomach at 31.25 to 125 mg/kg, po administered once a day for 14 days by H and E staining based analysis; assay type: organism-based; conditions: in vivo, 336 h, dose 31.25-125 mg/kg, time 14 day
[7] = Toxicity in Sprague-Dawley rat assessed as structural changes in bone marrow at 31.25 to 125 mg/kg, po administered once a day for 14 days by H and E staining based analysis; assay type: organism-based; conditions: in vivo, 336 h, dose 31.25-125 mg/kg, time 14 day
Cytochrome P450 2B6 = Cytochrome P450 2B6 (Homo sapiens, UniProt P20813); experiment: Inhibition of CYP2B6 (unknown origin); assay type: ADME
[8] = Metabolic stability in human liver microsomes assessed as half-life at 1 uM measured upto 240 mins; assay type: ADME, Microsome
Cytochrome P450 3A4 = Cytochrome P450 3A4 (Homo sapiens, UniProt P08684); experiment: Inhibition of CYP3A4 (unknown origin) using testosterone as substrate; assay type: ADME
[9] = Toxicity in Sprague-Dawley rat assessed as morphological changes in bone marrow at 31.25 to 125 mg/kg, po administered once a day for 14 days by H and E staining based analysis; assay type: organism-based; conditions: in vivo, 336 h, dose 31.25-125 mg/kg, time 14 day
PRMT5/MEP50 complex [10] = molecular target: PRMT5/MEP50 complex (Homo sapiens, UniProt O14744); experiment: Binding affinity to PRMT5/MEP50 (unknown origin) assessed as dissociation constant by SPR analysis; assay type: protein-complex assay
[11] = Toxicity in Sprague-Dawley rat assessed as morphological changes in caecum at 31.25 to 125 mg/kg, po administered once a day for 14 days by H and E staining based analysis; assay type: organism-based; conditions: in vivo, 336 h, dose 31.25-125 mg/kg, time 14 day
PRMT5/MEP50 complex [12] = molecular target: T1, PRMT5/MEP50 complex (Homo sapiens, UniProt O14744+Q9BQA1); experiment: Binding affinity to PRMT5/MEP50 (unknown origin) assessed as dissociation rate constant (koff) by SPR analysis
Ishikawa = experiment: Antiproliferative activity against human Ishikawa cells measured after 4 to 5 days by CCK-8 assay; assay type: functional, cell-based
[13] = Toxicity in Sprague-Dawley rat assessed as morphological changes in thymus at 31.25 to 125 mg/kg, po administered once a day for 14 days by H and E staining based analysis; assay type: organism-based; conditions: in vivo, 336 h, dose 31.25-125 mg/kg, time 14 day
MOLM-13 = experiment: Antiproliferative activity against human MOLM-13 cells measured after 4 to 5 days by CCK-8 assay; assay type: functional, cell-based
[14] = Protein binding in monkey plasma; assay type: ADME, cell-free, Macaca mulatta; conditions: rhesus monkey, read-out: PPB (converted)
[15] = Protein binding in mouse plasma; assay type: ADME, cell-free; conditions: read-out: PPB (converted)
[16] = Toxicity in Sprague-Dawley rat assessed as morphological changes in spleen at 31.25 to 125 mg/kg, po administered once a day for 14 days by H and E staining based analysis; assay type: organism-based; conditions: in vivo, 336 h, dose 31.25-125 mg/kg, time 14 day
T47D = experiment: Antiproliferative activity against human T47D cells measured after 4 to 5 days by CCK-8 assay; assay type: functional, cell-based
[17] = Toxicity in female SCID.BG […] mouse xenografted with human Z138 cells assessed as body weight loss at 12.5 to 50 mg/kg, po administered twice a day for 21 days; assay type: organism-based; conditions: in vivo, 504 h, dose 12.5-50 mg/kg, time 21 day
PRMT5/MEP50 complex [18] = molecular target: T1, PRMT5/MEP50 complex; experiment: Binding affinity to PRMT5/MEP50 (unknown origin) at 5 uM by SPR analysis; assay type: protein-complex assay

Sequence of Cytochrome P450 1A2 (P05177 whole entry): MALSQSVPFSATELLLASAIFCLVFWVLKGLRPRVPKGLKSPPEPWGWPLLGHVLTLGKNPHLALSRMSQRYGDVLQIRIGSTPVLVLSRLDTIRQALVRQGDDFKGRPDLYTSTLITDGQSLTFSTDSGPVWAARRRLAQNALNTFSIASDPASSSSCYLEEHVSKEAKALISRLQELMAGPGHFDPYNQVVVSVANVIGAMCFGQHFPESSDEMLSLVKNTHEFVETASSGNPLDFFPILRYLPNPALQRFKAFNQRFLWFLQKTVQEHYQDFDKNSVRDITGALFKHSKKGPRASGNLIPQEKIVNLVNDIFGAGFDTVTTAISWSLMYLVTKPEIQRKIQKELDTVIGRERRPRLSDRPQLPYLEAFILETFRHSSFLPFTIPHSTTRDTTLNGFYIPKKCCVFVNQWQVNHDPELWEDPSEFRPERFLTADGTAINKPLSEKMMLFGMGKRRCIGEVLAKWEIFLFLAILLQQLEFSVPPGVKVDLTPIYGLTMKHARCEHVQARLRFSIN
Sequence of Cytochrome P450 2B6 (P20813 whole entry): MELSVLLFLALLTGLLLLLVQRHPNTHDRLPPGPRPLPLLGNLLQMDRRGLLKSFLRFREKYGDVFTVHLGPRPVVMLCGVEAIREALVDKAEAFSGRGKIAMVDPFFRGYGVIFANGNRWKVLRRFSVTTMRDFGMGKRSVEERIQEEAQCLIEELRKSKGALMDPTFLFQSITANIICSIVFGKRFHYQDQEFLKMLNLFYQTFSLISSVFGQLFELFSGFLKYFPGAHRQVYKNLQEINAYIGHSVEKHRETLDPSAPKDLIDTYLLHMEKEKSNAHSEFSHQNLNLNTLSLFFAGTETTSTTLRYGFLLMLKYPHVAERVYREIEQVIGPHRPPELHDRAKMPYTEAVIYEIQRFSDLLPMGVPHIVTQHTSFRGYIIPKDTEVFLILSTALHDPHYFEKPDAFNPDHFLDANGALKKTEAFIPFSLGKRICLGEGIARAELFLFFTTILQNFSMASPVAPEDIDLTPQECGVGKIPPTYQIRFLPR
Sequence of PRMT5/MEP50 complex (Homo sapiens, UniProt O14744) (O14744 whole entry): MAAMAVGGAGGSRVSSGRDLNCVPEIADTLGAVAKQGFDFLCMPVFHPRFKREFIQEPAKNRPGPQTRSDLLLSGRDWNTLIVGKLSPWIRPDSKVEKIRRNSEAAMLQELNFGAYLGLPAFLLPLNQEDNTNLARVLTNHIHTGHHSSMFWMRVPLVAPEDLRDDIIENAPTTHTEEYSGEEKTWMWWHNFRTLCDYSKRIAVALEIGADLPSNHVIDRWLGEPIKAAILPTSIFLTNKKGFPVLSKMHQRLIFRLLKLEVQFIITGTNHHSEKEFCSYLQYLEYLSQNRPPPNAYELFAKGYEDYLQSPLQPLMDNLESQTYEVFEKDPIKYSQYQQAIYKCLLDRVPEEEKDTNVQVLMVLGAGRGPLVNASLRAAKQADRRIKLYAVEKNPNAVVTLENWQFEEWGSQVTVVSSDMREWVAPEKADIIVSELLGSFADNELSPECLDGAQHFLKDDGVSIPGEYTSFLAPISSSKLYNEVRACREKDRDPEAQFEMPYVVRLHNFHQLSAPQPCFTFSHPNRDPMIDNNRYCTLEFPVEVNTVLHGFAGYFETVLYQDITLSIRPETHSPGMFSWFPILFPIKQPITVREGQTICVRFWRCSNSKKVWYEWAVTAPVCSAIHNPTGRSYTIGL
Sequence of PRMT5/MEP50 complex (Homo sapiens, UniProt O14744) (Q9BQA1 whole entry, further chain): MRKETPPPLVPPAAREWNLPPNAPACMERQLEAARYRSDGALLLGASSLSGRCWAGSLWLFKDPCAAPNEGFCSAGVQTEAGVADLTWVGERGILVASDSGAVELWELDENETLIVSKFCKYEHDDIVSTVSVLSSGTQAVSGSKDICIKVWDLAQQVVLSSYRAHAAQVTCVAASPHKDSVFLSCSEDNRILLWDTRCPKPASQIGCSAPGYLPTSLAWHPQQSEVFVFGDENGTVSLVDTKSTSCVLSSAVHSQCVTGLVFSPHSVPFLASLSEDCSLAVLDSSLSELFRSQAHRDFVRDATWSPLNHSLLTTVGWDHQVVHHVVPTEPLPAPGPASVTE
T1 sequence (O14744 whole entry): as the sequence (O14744 whole entry) above
T1 sequence (Q9BQA1 whole entry): as the sequence (Q9BQA1 whole entry, further chain) above
Sequence of Cytochrome P450 3A4 (P08684 whole entry): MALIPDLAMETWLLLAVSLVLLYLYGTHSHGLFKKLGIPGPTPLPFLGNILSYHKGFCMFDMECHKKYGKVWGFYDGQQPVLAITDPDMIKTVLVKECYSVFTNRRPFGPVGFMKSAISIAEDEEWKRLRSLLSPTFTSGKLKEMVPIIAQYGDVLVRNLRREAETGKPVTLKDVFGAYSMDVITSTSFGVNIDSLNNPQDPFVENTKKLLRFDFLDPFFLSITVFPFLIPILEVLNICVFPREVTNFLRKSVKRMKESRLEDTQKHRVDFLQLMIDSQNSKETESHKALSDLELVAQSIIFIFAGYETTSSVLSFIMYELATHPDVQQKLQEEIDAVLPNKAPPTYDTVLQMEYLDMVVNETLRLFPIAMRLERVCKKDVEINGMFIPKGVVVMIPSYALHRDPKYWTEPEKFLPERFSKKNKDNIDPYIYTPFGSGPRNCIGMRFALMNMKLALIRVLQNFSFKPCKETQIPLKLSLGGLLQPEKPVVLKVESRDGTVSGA

CC(=O)N1CC2(CC(Nc3cc4c(cn3)C3(CC3)CN(C[C@H](O)CN3CCc5ccccc5C3)C4=O)C2)C1
fraction unbound [1]: 0.0204 | pIC50 (Cytochrome P450 1A2): < 4.30 | inhibition in vivo at 25 mg/kg (Z-138 [2]): 106% | pIC50 (NCI-H1975): 9.02 | Activity [3]: Non-toxic | Activity [4]: Non-toxic | pIC50 (A-427): 7.14 | pIC50 (A549): 7.86 | inhibition in vivo at 50 mg/kg (Z-138 [5]): 106% | Activity [6]: Non-toxic | Activity [7]: Non-toxic | pIC50 (Cytochrome P450 2B6): < 4.30 | half-life at 1 µM [8]: 17.5 min | pIC50 (Cytochrome P450 3A4): < 4.30 | Activity [9]: Non-toxic | pKd (PRMT5/MEP50 complex [10]): 6.98 | Activity [11]: Non-toxic | koff (PRMT5/MEP50 complex [12]): 3.62 10^-2/s | pIC50 (Ishikawa): 8.26 | Activity [13]: Non-toxic | pIC50 (MOLM-13): 7.52 | fraction unbound [14]: 0.11 | fraction unbound [15]: 0.0701 | Activity [16]: Non-toxic | pIC50 (T47D): 8.65 | Activity [17]: Non-toxic | Activity (PRMT5/MEP50 complex [18]): Active
